The text below walks through data of EPA's ToxValDB 9.5 (doi:10.2903/j.efsa.2010.1692).

SMILES strings stand for the structures.

The test system of one series is Tagia sp. The conditions noted are these: acute; mortality.
In another series the test system is Pimephales promelas. To be noted: chronic/long-term; duration: 32 days.
The next series has as its system Chrysoperla externa. To be noted: not reported; mortality.
In the next series the test system is Anas platyrhynchos. The conditions noted are these: short-term; oral; feed; mortality.
The test system of another series is Aphidius rhopalosiphi. To be noted: not reported; reproduction.
In the next series the test system is Oncorhynchus mykiss. The conditions noted are these: acute; duration: 96 hours; mortality.
A further series deals with Lepomis macrochirus. The conditions noted are these: acute; duration: 96 hours; mortality.
The test system of the next series is Lymnaea stagnalis. The conditions noted are these: chronic/long-term; duration: 41 days.
Another series deals with Apis mellifera. The conditions noted are these: acute; duration: 48 hours; oral; unspecified; mortality.

Consider `COc1cc(OC)nc(Oc2cccc(Oc3nc(OC)cc(OC)n3)c2C(=O)[O-])n1.[Na+]` [Bispyribac-sodium], for which the LD50 was 2640 mg/kg in the series with Rattus norvegicus (acute, oral, mortality); above 2250 mg/kg in the series with Coturnix coturnix (acute, oral, mortality); above 141 µg/piece in the series on Apis mellifera. The NOAEL in the series with Rattus norvegicus (chronic, duration: 2 years, hematological) was 1.1 mg/kg-day; with Rattus norvegicus (reproduction developmental, histopathology: nonneoplastic) it was 1 mg/kg-day; with Rattus norvegicus (subchronic, duration: 90 days, oral, clinical chemistry) it was 7.2 mg/kg-day. This molecule also had an NOAEC with Rattus norvegicus (reproduction developmental, body weight) of 50 mg/kg-day. For the same molecule, the LC50 with Tagia sp. is above 957 mg/kg; in the series on Anas platyrhynchos it was above 2060 mg/kg; with Coturnix coturnix (acute, oral, diet, mortality), above 2080 mg/kg; in the series with Oncorhynchus mykiss, above 95 µg/mL; in the series on Lepomis macrochirus, above 95 µg/mL. The NOEC is at least 10 mg/L with Pimephales promelas; 116 mg/kg-day in the series with Coturnix coturnix (reproduction developmental, reproduction); at least 10 mg/L in the series on Lymnaea stagnalis. For the same molecule, the figures for the LEL in the series on Chrysoperla externa and with Aphidius rhopalosiphi were 30 g/ha and 3 g/ha, respectively.

For orientation: NOAEL means the highest dose or exposure tested at which no adverse effect was seen.
